Results reported in patent US10414763B2 (CANCER RESEARCH TECHNOLOGY LIMITED, priority 2014, dated 2019).

Target: T1, full-length human PKCι (Homo sapiens, UniProt P41743)
T1 construct: Recombinant, full-length human PKCι expressed in Sf21 insect cells is also commercially available; purchased EMD Millipore; host or cells: Sf21 insect cells (baculovirus)
T1 sequence (P41743 1-596): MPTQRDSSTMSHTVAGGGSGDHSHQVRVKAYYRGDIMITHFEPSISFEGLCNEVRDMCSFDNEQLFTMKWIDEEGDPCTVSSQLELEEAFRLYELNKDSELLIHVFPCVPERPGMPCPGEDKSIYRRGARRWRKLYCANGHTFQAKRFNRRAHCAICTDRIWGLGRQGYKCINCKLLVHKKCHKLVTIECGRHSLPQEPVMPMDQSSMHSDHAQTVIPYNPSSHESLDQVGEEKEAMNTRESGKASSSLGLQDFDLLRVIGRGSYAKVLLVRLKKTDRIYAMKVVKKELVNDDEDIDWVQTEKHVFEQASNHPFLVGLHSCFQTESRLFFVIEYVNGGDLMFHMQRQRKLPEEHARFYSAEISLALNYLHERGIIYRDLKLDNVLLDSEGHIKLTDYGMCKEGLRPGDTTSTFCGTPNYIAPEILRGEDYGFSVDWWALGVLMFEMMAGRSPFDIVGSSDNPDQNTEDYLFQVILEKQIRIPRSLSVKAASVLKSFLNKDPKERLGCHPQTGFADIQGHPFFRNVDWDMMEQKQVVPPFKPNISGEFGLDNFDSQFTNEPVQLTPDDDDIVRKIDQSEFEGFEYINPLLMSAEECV
Assay: PKCι IC50 IMAP fluorescence polarisation assay, full-length enzyme, 150 μM ATP
Type: biochemical
Conditions: read-out: IC50 in IMAP assay against full length PKCi at 150 μM ATP
Method in brief: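 IMAP fluorescence polarisation kinase assay: 15 pM baculovirus-expressed human PKCiota with 100 nM FAM-pseudosubstrate peptide and 150 μM ATP, 1 h at 25 °C. IMAP detection reagent then 2 h at 25 °C before FP measurement. Inhibition referenced to no-compound and no-enzyme controls for IC50 fitting.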

IC50 | SMILES
100 to 1000 nM | C[C@H]1CNCC[C@H]1Nc1nc(-c2ccnc3[nH]c4ccccc4c23)nc2cncc(C(F)(F)F)c12 (racemic) [Example 351, rac-(3S,4R)-3-Methyl-piperidin-4-yl)-[2-(9H-pyrido[2,3-b]indol-4-yl)-5-trifluoromethyl-pyrido[3,4-d]pyrimidin-4-yl]-amine]
< 100 nM | C[C@@H]1CNCC[C@H]1Nc1nc(-c2ccnc3[nH]c4ccccc4c23)nc2cncc(C(F)(F)F)c12 (racemic) [Example 352, (rac-(3R,4R)-3-Methyl-piperidin-4-yl)-[2-(9H-pyrido[2,3-b]indol-4-yl)-5-trifluoromethyl-pyrido[3,4-d]pyrimidin-4-yl]-amine]
< 100 nM | C[C@@]1(O)CNCC[C@H]1Nc1nc(-c2ccnc3[nH]c(-c4cc(F)ccc4Cl)cc23)nc2cncc(C3CC3)c12 (racemic) [Example 354, rac-(3R,4R)-4-{2-[2-(2-Chloro-5-fluoro-phenyl)-1H-pyrrolo[2,3-b]pyridin-4-yl]-5-cyclopropyl-pyrido[3,4-d]pyrimidin-4-ylamino}-3-methyl-piperidin-3-ol]
< 100 nM | O[C@@]12CCN(c3nc(-c4ccnc5[nH]c(-c6cc(F)ccc6Cl)cc45)nc4cncc(C5CC5)c34)[C@@H]1CCNC2 (racemic) [Example 358, rac(1R,3aS)-1-{2-[2-(2-Chloro-5-fluoro-phenyl)-1H-pyrrolo[2,3-b]pyridin-4-yl]-5-cyclopropyl-pyrido[3,4-d]pyrimidin-4-yl}-octahydro-pyrrolo[3,2-c]pyridin-3a-ol]
< 100 nM | O[C@H]1CNCC[C@H]1Nc1nc(-c2ccnc(Nc3nc(F)ccc3F)c2)nc2cncc(C3CCC3)c12 (racemic) [Example 381, rac-(3S,4R)-4-{5-Cyclobutyl-2-[2-(3,6-difluoro-pyridin-2-ylamino)-pyridin-4-yl]-pyrido[3,4-d]pyrimidin-4-ylamino}-piperidin-3-ol]
< 100 nM | C[C@H]1C[C@@H](Nc2nc(-c3ccnc(Nc4nc(F)ccc4F)c3)nc3cncc(C4CCC4)c23)CCN1 (racemic) [Example 386, {5-Cyclobutyl-2-[2-(3,6-difluoro-pyridin-2-ylamino)-pyridin-4-yl]-pyrido[3,4-d]pyrimidin-4-yl}-(rac-(2S,4S)-2-methyl-piperidin-4-yl)-amine]
< 100 nM | C[C@@H]1C[C@@H](Nc2nc(-c3ccnc(Nc4nc(F)ccc4F)c3)nc3cncc(C4CCC4)c23)CCN1 (racemic) [Example 387, {5-Cyclobutyl-2-[2-(3,6-difluoro-pyridin-2-ylamino)-pyridin-4-yl]-pyrido[3,4-d]pyrimidin-4-yl}-(rac-(2R,4S)-2-methyl-piperidin-4-yl)-amine]
< 100 nM | C[C@@H]1CNCC[C@H]1Nc1nc(-c2ccnc(Nc3nc(F)ccc3F)c2)nc2cncc(C3CCC3)c12 (single isomer, unassigned) [Example 279, {5-Cyclobutyl-2-[2-(3,6-difluoro-pyridin-2-ylamino)-pyridin-4-yl]-pyrido[3,4-d]pyrimidin-4-yl}-((3R,4R)-3-methyl-piperidin-4-yl)-amine or enantiomer]
< 100 nM | C[C@H]1CNCC[C@@H]1Nc1nc(-c2ccnc(Nc3nc(F)ccc3F)c2)nc2cncc(C3CCC3)c12 (single isomer, unassigned) [Example 280, {5-Cyclobutyl-2-[2-(3,6-difluoro-pyridin-2-ylamino)-pyridin-4-yl]-pyrido[3,4-d]pyrimidin-4-yl}-((3S,4S)-3-methyl-piperidin-4-yl)-amine or enantiomer]
< 100 nM | C[C@@H]1CNCC[C@@H]1Nc1nc(-c2ccnc(Nc3nc(F)ccc3F)c2)nc2cncc(C3CCC3)c12 (single isomer, unassigned) [Example 297, {5-Cyclobutyl-2-[2-(3,6-difluoro-pyridin-2-ylamino)-pyridin-4-yl]-pyrido[3,4-d]pyrimidin-4-yl}-((3R,4S)-3-methyl-piperidin-4-yl)-amine or enantiomer]
< 100 nM | C[C@H]1CNCC[C@H]1Nc1nc(-c2ccnc(Nc3nc(F)ccc3F)c2)nc2cncc(C3CCC3)c12 (single isomer, unassigned) [Example 298, {5-Cyclobutyl-2-[2-(3,6-difluoro-pyridin-2-ylamino)-pyridin-4-yl]-pyrido[3,4-d]pyrimidin-4-yl}-((3S,4R)-3-methyl-piperidin-4-yl)-amine or enantiomer]
< 100 nM | C[C@H]1CNCC[C@@H]1Nc1nc(-c2ccnc(Nc3nc(F)ccc3F)c2)nc2cncc(C3CC3)c12 (single isomer, unassigned) [Example 334, 5-Cyclopropyl-2-[2-[(3,6-difluoro-2-pyridyl)amino]-4-pyridyl]-N-[(3S,4S)-3-methyl-4-piperidyl]pyrido[3,4-d]pyrimidin-4-amine or enantiomer]
< 100 nM | C[C@@H]1CNCC[C@H]1Nc1nc(-c2ccnc(Nc3nc(F)ccc3F)c2)nc2cncc(C3CC3)c12 (single isomer, unassigned) [Example 335, 5-Cyclopropyl-2-[2-[(3,6-difluoro-2-pyridyl)amino]-4-pyridyl]-N-[(3R,4R)-3-methyl-4-piperidyl]pyrido[3,4-d]pyrimidin-4-amine or enantiomer]
< 100 nM | C[C@@H]1CNCC[C@H]1Nc1nc(-c2ccnc(Nc3ncccc3F)c2)nc2cncc(C3CCC3)c12 (single isomer, unassigned) [Example 341, 5-Cyclobutyl-2-[2-[(3-fluoro-2-pyridyl)amino]-4-pyridyl]-N-[(3R,4R)-3-methyl-4-piperidyl]pyrido[3,4-d]pyrimidin-4-amine or enantiomer]
< 100 nM | C[C@H]1CNCC[C@@H]1Nc1nc(-c2ccnc(Nc3ncccc3F)c2)nc2cncc(C3CCC3)c12 (single isomer, unassigned) [Example 342, 5-Cyclobutyl-2-[2-[(3-fluoro-2-pyridyl)amino]-4-pyridyl]-N-[(3S,4S)-3-methyl-4-piperidyl]pyrido[3,4-d]pyrimidin-4-amine or enantiomer]
< 100 nM | CC1(C)CNCCC1Nc1nc(-c2ccnc3[nH]c(-c4cc(Cl)ccc4Cl)cc23)nc2cncc(C3CC3)c12 (stereo in doubt) [Example 353, {5-Cyclopropyl-2-[2-(2,5-dichloro-phenyl)-1H-pyrrolo[2,3-b]pyridin-4-yl]-pyrido[3,4-d]pyrimidin-4-yl}-((S)-3,3-dimethyl-piperidin-4-yl)-amine]
100 to 1000 nM | Cc1cn2c(n1)[nH]c1nccc(-c3nc(N4CCNCC4)c4c(C5CCC5)cncc4n3)c12 [Example 3, 4-(5-Cyclobutyl-4-piperazin-1-yl-pyrido[3,4-d]pyrimidin-2-yl)-2-methyl-8H-1,3a,7,8-tetraaza-cyclopent[a]indene]
100 to 1000 nM | OC[C@@H]1CNCCN1c1nc(-c2ccnc3[nH]c(C(F)(F)F)cc23)nc2cncc(C3CC3)c12 [Example 4, {(S)-1-[5-Cyclopropyl-2-(2-trifluoromethyl-1H-pyrrolo[2,3-b]pyridin-4-yl)-pyrido[3,4-d]pyrimidin-4-yl]-piperazin-2-yl}-methanol]

SMILES | IC50
CN(c1nc(-c2ccnc3[nH]c(-c4cc(F)ccc4Cl)cc23)nc2cncc(C3CC3)c12)[C@@H]1CCNC[C@@]1(C)O (racemic) [Example 359, rac-(3R,4R)-4-({2-[2-(2-Chloro-5-fluoro-phenyl)-1H-pyrrolo[2,3-b]pyridin-4-yl]-5-cyclopropyl-pyrido[3,4-d]pyrimidin-4-yl}-methyl-amino)-3-methyl-piperidin-3-ol] | < 100 nM
